# Measured values taken from patent US8263606B2 (Xenon Pharmaceuticals Inc., priority 2008, dated 2012).
# What was measured:
# CYP3A4 = CYP3A4 (Homo sapiens, UniProt P08684); assay: Cytochrome P450 (CYP450) Inhibition Assay, CYP3A4 (Vivid fluorescence, BOMCC substrate); details: human, P450 Baculosomes (recombinant CYP3A4), probe BOMCC (Vivid substrate)
# sodium channel = assay: Guanidine influx assay (14C-guanidine radiotracer flux, in vitro); assay type: cell-based, human or rat; details: guanidine influx assay using a known cell line that expresses a sodium channel
# Method in brief: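 Cells stably expressing human or rat sodium channels (~100,000/well, 20–24 h) were exposed in low-sodium choline buffer to test agent plus aconitine activator and 14C-guanidine at ambient temperature. Intracellular 14C-guanidine was counted by scintillation; IC50 fitted by 4-parameter logistic over half-dilutions around 1 μM.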
# CYP3A4, sequence (P08684 whole entry): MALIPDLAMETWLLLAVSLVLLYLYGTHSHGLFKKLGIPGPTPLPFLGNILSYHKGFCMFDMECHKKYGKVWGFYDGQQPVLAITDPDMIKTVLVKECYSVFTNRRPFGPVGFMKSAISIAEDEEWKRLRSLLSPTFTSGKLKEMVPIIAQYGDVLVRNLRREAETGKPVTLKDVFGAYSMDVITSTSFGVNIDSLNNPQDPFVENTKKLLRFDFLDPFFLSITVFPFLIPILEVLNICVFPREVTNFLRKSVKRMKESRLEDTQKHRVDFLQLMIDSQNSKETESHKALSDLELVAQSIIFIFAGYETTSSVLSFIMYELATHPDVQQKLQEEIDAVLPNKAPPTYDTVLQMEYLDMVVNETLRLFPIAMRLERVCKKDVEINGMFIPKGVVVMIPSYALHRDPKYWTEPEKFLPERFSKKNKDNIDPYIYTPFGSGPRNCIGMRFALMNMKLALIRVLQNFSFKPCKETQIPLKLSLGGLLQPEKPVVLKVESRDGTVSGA
melting point,inhibition at 10 µM (CYP3A4),IC50 (sodium channel),Structure (SMILES)
72 to 73 °C,> 50%,100 to 1000 nM,"COCCNC(=O)c1cccc(CN2C(=O)C3(COc4cc5c(cc43)CCO5)c3ccccc32)c1 (stereo not drawn) [Example 12.1, N-(2-methoxyethyl)-3-[(2′-oxo-5,6-dihydrospiro[benzo[1,2-b:5,4-b′]difuran-3,3′-indol]-1′(2′H)-yl)methyl]benzamide]"
73 to 74 °C,> 50%,100 to 1000 nM,"CCCCCCN(C)C(=O)c1cccc(CN2C(=O)C3(COc4cc5c(cc43)CCO5)c3ccccc32)c1 (stereo not drawn) [Example 12.2, N-hexyl-N-methyl-3-[(2′-oxo-5,6-dihydrospiro[benzo[1,2-b:5,4-b′]difuran-3,3′-indol]-1′(2′H)-yl)methyl]benzamide]"
105 to 106 °C,> 50%,100 to 1000 nM,"CCC(CC)CNC(=O)c1cccc(CN2C(=O)C3(COc4cc5c(cc43)CCO5)c3ccccc32)c1 (stereo not drawn) [Example 12.3, N-(2-ethylbutyl)-3-[(2′-oxo-5,6-dihydrospiro[benzo[1,2-b:5,4-b′]difuran-3,3′-indol]-1′(2′H)-yl)methyl]benzamide]"
234 to 235 °C,> 50%,100 to 1000 nM,"Cc1ccc(NC(=O)c2cccc(CN3C(=O)C4(COc5cc6c(cc54)CCO6)c4ccccc43)c2)c(C)c1 (stereo not drawn) [Example 12.4, N-(2,4-dimethylphenyl)-3-[(2′-oxo-5,6-dihydrospiro[benzo[1,2-b:5,4-b′]difuran-3,3′-indol]-1′(2′H)-yl)methyl]benzamide]"
> 230 °C,< 50%,≥ 10000 nM,"CCc1ccc(NC(=O)c2ccccc2CN2C(=O)C3(COc4cc5c(cc43)CCO5)c3ccccc32)cc1 (stereo not drawn) [Example 12.8, N-(4-ethylphenyl)-2-[(2′-oxo-5,6-dihydrospiro[benzo[1,2-b:5,4-b′]difuran-3,3′-indol]-1′(2′H)-yl)methyl]benzamide]"
184 to 186 °C,> 50%,1000 to 10000 nM,"CCc1ccccc1NC(=O)c1ccccc1CN1C(=O)C2(COc3cc4c(cc32)CCO4)c2ccccc21 (stereo not drawn) [Example 12.9, N-(2-ethylphenyl)-2-[(2′-oxo-5,6-dihydrospiro[benzo[1,2-b:5,4-b′]difuran-3,3′-indol]-1′(2′H)-yl)methyl]benzamide]"
207 to 208 °C,> 50%,1000 to 10000 nM,"Cc1ccc(NC(=O)c2ccccc2CN2C(=O)C3(COc4cc5c(cc43)CCO5)c3ccccc32)c(C)c1 (stereo not drawn) [Example 12.10, N-(2,4-dimethylphenyl)-2-[(2′-oxo-5,6-dihydrospiro[benzo[1,2-b:5,4-b′]difuran-3,3′-indol]-1′(2′H)-yl)methyl]benzamide]"

# Second part, the compound before the results:
Structure (SMILES),melting point,inhibition at 10 µM (CYP3A4),IC50 (sodium channel)
O=C1N(Cc2ncccc2Br)c2ccccc2C12COc1cc3c(cc12)OCCO3 (stereo not drawn) [Example 11.78],217 to 218 °C,< 50%,1 to 100 nM
CS(=O)(=O)c1cccnc1CN1C(=O)C2(COc3cc4c(cc32)OCCO4)c2ccccc21 (stereo not drawn) [Example 11.79],> 250 °C,< 50%,100 to 1000 nM
N#Cc1cccnc1CN1C(=O)C2(COc3cc4c(cc32)OCCO4)c2ccccc21 (stereo not drawn) [Example 11.80],230 to 233 °C,< 50%,1 to 100 nM
"O=C1N(Cc2ncccc2C(F)F)c2ccccc2[C@]12COc1cc3c(cc12)OCCO3 [Example 11.81, (8S)-1′-{[3-(difluoromethyl)pyridin-2-yl]methyl}-2,3-dihydrospiro[furo[2,3-g][1,4]benzodioxine-8,3′-indol]-2′(1′H)-one]",181 to 182 °C,< 50%,1 to 100 nM
"Cc1nc(-c2cccc(CN3C(=O)C4(COc5cc6c(cc54)OCCO6)c4ccccc43)c2)no1 (stereo not drawn) [Example 11.83, 1′-[3-(5-methyl-1,2,4-oxadiazol-3-yl)benzyl]-2,3-dihydrospiro[furo[2,3-g][1,4]benzodioxine-8,3′-indol]-2′(1′H)-one]",90 to 95 °C,> 50%,1 to 100 nM
"Cc1nc(-c2ccc(CN3C(=O)C4(COc5cc6c(cc54)OCCO6)c4ccccc43)cc2)no1 (stereo not drawn) [Example 11.84, 1′-[4-(5-methyl-1,2,4-oxadiazol-3-yl)benzyl]-2,3-dihydrospiro[furo[2,3-g][1,4]benzodioxine-8,3′-indol]-2′(1′H)-one]",174 to 175 °C,< 50%,1 to 100 nM
"O=C(O)c1cccc(CN2C(=O)C3(COc4cc5c(cc43)OCCO5)c3ccccc32)c1 (stereo not drawn) [Example 11.86, 3-[(2′-oxo-2,3-dihydrospiro[furo[2,3-g][1,4]benzodioxine-8,3′-indol]-1′(2′H)-yl)methyl]benzoic acid]",254 to 258 °C,< 50%,1000 to 10000 nM
"O=C(O)c1ccc(CN2C(=O)C3(COc4cc5c(cc43)OCCO5)c3ccccc32)cc1 (stereo not drawn) [Example 11.87, 4-[(2′-oxo-2,3-dihydrospiro[furo[2,3-g][1,4]benzodioxine-8,3′-indol]-1′(2′H)-yl)methyl]benzoic acid]",234 to 237 °C,< 50%,1000 to 10000 nM
"O=C1N(Cc2noc(C(F)(F)F)n2)c2ccccc2C12COc1cc3c(cc12)OCCO3 (stereo not drawn) [Example 11.90, 1′-{[5-(trifluoromethyl)-1,2,4-oxadiazol-3-yl]methyl}-2,3-dihydrospiro[furo[2,3-g][1,4]benzodioxine-8,3′-indol]-2′(1′H)-one]",159 to 160 °C,> 50%,1 to 100 nM
"O=C1N(Cc2nnc(C(F)(F)F)o2)c2ccccc2C12COc1cc3c(cc12)OCCO3 (stereo not drawn) [Example 11.92, 1′-{[5-(trifluoromethyl)-1,3,4-oxadiazol-2-yl]methyl}-2,3-dihydrospiro[furo[2,3-g][1,4]benzodioxine-8,3′-indol]-2′(1′H)-one]",137 to 139 °C,< 50%,1 to 100 nM
"CC(C)N1CCC(CN2C(=O)C3(COc4cc5c(cc43)OCCO5)c3ccccc32)CC1.Cl (stereo not drawn) [Example 11.100, 1′-{[1-(1-methylethyl)piperidin-4-yl]methyl}-2,3-dihydrospiro[furo[2,3-g][1,4]benzodioxine-8,3′-indol]-2′(1′H)-one hydrochloride]",213 to 216 °C,> 50%,1000 to 10000 nM
"O=C1N(CC2CNCCO2)c2ccccc2C12COc1cc3c(cc12)OCCO3 (stereo not drawn) [Example 11.102, 1-(morpholin-2-ylmethyl)-2,3-dihydrospiro[furo[2,3-g][1,4]benzodioxine-8,3′-indol]-2′(1′1-1)-one]",154 to 159 °C,< 50%,1000 to 10000 nM
"CC(C)N1CCOC(CN2C(=O)C3(COc4cc5c(cc43)OCCO5)c3ccccc32)C1 (stereo not drawn) [Example 11.103, 1′-{[4-(1-methylethyl)morpholin-2-yl]methyl}-2,3-dihydrospiro[furo[2,3-g][1,4]benzodioxine-8,3′-indol]-2′(1′H)-one]",102 to 125 °C,> 50%,100 to 1000 nM
"CN1CCOC(CN2C(=O)C3(COc4cc5c(cc43)OCCO5)c3ccccc32)C1 (stereo not drawn) [Example 11.104, 1-[(4-methylmorpholin-2-yl)methyl]-2,3-dihydrospiro[furo[2,3-g][1,4]benzodioxine-8,3′-indol]-2′(1′H)-one]",102 to 112 °C,> 50%,100 to 1000 nM
"CN1CCO[C@H](CN2C(=O)[C@@]3(COc4cc5c(cc43)OCCO5)c3ccccc32)C1 [Example 11.106, (8S)-1′-{[(2S)-4-methylmorpholin-2-yl]methyl}-2,3-dihydrospiro[furo[2,3-g][1,4]benzodioxine-8,3′-indol]-2′(1′H)-one]",85 to 90 °C,< 50%,1 to 100 nM
"O=C1N(Cc2ncccc2C(F)(F)F)c2ccccc2C12COc1ccc3nonc3c12 (stereo not drawn) [Example 11.107, 1′-{[3-(trifluoromethyl)pyridin-2-yl]methyl}spiro[furo[3,2-e][2,1,3]benzoxadiazole-8,3′-indol]-2′(1′H)-one]",212 to 215 °C,> 50%,1000 to 10000 nM
"O=C1N(Cc2ncccc2C(F)(F)F)c2ccccc2C12COc1c(Cl)cc3c(c12)OCCO3 (stereo not drawn) [Example 11.108, 6-chloro-1′-{[3-(trifluoromethyl)pyridin-2-yl]methyl}-2,3-dihydrospiro[furo[3,2-f][1,4]benzodioxine-9,3′-indol]-2′(1′H)-one]",273 to 275 °C,< 50%,1000 to 10000 nM
"O=C1N(Cc2ncccc2C(F)(F)F)c2ccccc2C12COc1ccc3c(c12)OCCO3 (stereo not drawn) [Example 11.109, 1′-{[3-(trifluoromethyl)pyridin-2-yl]methyl}-2,3-dihydrospiro[furo[3,2-f][1,4]benzodioxine-9,3′-indol]-2′(1′H)-one]",245 to 247 °C,< 50%,1000 to 10000 nM
"O=C1N(Cc2ccc(C(F)F)o2)c2ccccc2C12COc1cc3c(cc12)OCCO3 (stereo not drawn) [Example 11.110, 1-{[5-(difluoromethyl)furan-2-yl]methyl}-2,3-dihydrospiro[furo[2,3-g][1,4]benzodioxine-8,3′-indol]-2′(1′H)-one]",173 to 175 °C,> 50%,1 to 100 nM
"Cl.O=C1N(CC2CCNCC2)c2ccccc2C12COc1cc(F)c(F)cc12 (stereo not drawn) [Example 11.111, 5,6-difluoro-1′-(piperidin-4-ylmethyl)spiro[1-benzofuran-3,3′-indol]-2′(1′H)-one hydrochloride]",> 200 °C,> 50%,1 to 100 nM
